Source: US20230338250A1, “Compositions Comprising One or More (Bio)-Alkanediols with Active Ingredients” (Symrise AG, priority 2020, published 2023)

Tests used:
[1] = Example 2 solubility of alkanediols in water (maximum water solubility, visual observation); assay type: physicochemical; conditions: assessed at ambient temperature after 24 h storage at 5° C.
Text: The water solubility of a substance is the saturation mass concentration of the substance in water at a given temperature. The determination of the solubility in water relates to essentially pure substances which are stable in water and not volatile.
For the determination of the maximum water solubility of an alkanediol, water and different concentrations of the respective alkanediol were blended by stirring. […] The determination of whether the alkanediol has dissolved in water is based entirely on visual observation.

[2] = Example 1.2 solubility improvement for Hydrocortisone with 1,2-alkanediols: visual appearance; assay type: physicochemical; conditions: 0.2 % Hydrocortisone; 1.0 % 1,2-alkanediol; after 3 days 23° C.
Description: Production method: A premix B was prepared by mixing solvent, solubilizer and diol. Hydrocortisone was added. The mixture was heated to 70° C. to solve the active component while stirring with a magnetic stirrer. The mixture was stirred for further 5 minutes at 70° C. Water was added and the mixture was cooled while stirring (10 min).
The visual appearance of the sample solutions was evaluated according to the following scale:
The images of the sample solutions A (containing 1,2-pentanediol), B (containing 1,2-hexanediol), C (containing 1,2-heptanediol) and D (containing 1,2-octanediol) are shown in FIG. 3.

Compound | Maximum solubility in water (% by weight) [1] [% by weight] | crystallization/sedimentation, transparency, turbidity compared between samples [2]
CCCCCC(O)C(C)O (stereo not drawn) [2,3-octanediol] | 1.5 | 
CCCCCCC(O)C(C)O (stereo not drawn) [2,3-nonanediol] | 0.3 | 
CCCCCCC(O)CO (stereo not drawn) [Hydrolite® 8, 1,2-octanediol] | 0.5 | 
CCCCC(O)CO (stereo not drawn) [Hydrolite® 6, 1,2-hexanediol] | 50 | 
CCCCCC(O)CO (stereo not drawn) [1,2-heptanediol] | 2.5 | better solubility improving properties
CCCCCCCC(O)CO (stereo not drawn) [1,2-nonanediol] | 0.1 | 
CCCCC(O)C(C)O (stereo not drawn) [2,3-heptanediol] | 3.6 | 
CCCC(O)CO (stereo not drawn) [Hydrolite® 5 green, 1,2-pentanediol] | 50 | 
